Source: patent publication US20080227813A1, “Pharmaceutical compositions and methods for treating diseases associated with neurodegeneration” (priority 2006, published 2008)
Like-named read-outs stand apart in the source and are kept apart here.

Experiments:
[1] = human, in vivo
[2] = 69 assigned to treatment, 100 mg tid, 6 months
[3] = number of patients, open-label 100 mg tid
[4] = vs placebo cohort of the Celebrex® study (historical control)

## [O-][n+]1cccc(/C(Cl)=N/OC[C@H](O)CN2CCCCC2)c1 [Compound I, N-[2-hydroxy-3-(1-piperidinyl)-propoxy]-pyridine-1-oxide-3-carboximidoyl chloride]
[1]
  route of removal: mostly removed unchanged in urine
[1]; po
  Mean t1/2 values: 2.5 to 6.2 h
  Tmax values: 0.5 to 1.1 h
  t1/2: 4 h
[1]; po, 50 mg
  AUC(0-t), GeoMean: 590 ng·h/mL
  AUC(0-t), Mean: 600 ng·h/mL
  AUC, GeoMean: 640 ng·h/mL
  AUC, Mean: 650 ng·h/mL
  Cmax, GeoMean: 160 ng/mL
  Cmax, Mean: 170 ng/mL
  MRT, GeoMean: 3.4 h
  MRT, Mean: 3.5 h
  Tmax, GeoMean: 0.82 h
  Tmax, Mean: 0.9 h
  t½, GeoMean: 3 h
  t½, Mean: 3.1 h
[1]; po, 100 mg
  AUC(0-t), GeoMean: 1400 ng·h/mL
  AUC(0-t), Mean: 1400 ng·h/mL
  AUC, GeoMean: 1600 ng·h/mL
  AUC, Mean: 1600 ng·h/mL
  Cmax, GeoMean: 390 ng/mL
  Cmax, Mean: 400 ng/mL
  MRT, GeoMean: 3.7 h
  MRT, Mean: 3.8 h
  Tmax, GeoMean: 1 h
  Tmax, Mean: 1.1 h
  t½, GeoMean: 3.5 h
  t½, Mean: 3.7 h
[1]; po, 200 mg
  AUC(0-t), GeoMean: 2700 ng·h/mL
  AUC(0-t), Mean: 2700 ng·h/mL
  AUC, GeoMean: 2800 ng·h/mL
  AUC, Mean: 2800 ng·h/mL
  Cmax, GeoMean: 890 ng/mL
  Cmax, Mean: 890 ng/mL
  MRT, GeoMean: 3.7 h
  MRT, Mean: 3.8 h
  Tmax, GeoMean: 0.82 h
  Tmax, Mean: 0.9 h
  t½, GeoMean: 3.1 h
  t½, Mean: 3.1 h
[1]; po, 400 mg
  AUC(0-t), GeoMean: 6200 ng·h/mL
  AUC(0-t), Mean: 6300 ng·h/mL
  AUC, GeoMean: 6300 ng·h/mL
  AUC, Mean: 6400 ng·h/mL
  Cmax, GeoMean: 1800 ng/mL
  Cmax, Mean: 1800 ng/mL
  MRT, GeoMean: 4.5 h
  MRT, Mean: 4.5 h
  Tmax, GeoMean: 0.82 h
  Tmax, Mean: 0.9 h
  t½, GeoMean: 4 h
  t½, Mean: 4.1 h
[1]; po, 600 mg
  AUC(0-t), GeoMean: 8900 ng·h/mL
  AUC(0-t), Mean: 9100 ng·h/mL
  AUC, GeoMean: 9000 ng·h/mL
  AUC, Mean: 9200 ng·h/mL
  Cmax, GeoMean: 2900 ng/mL
  Cmax, Mean: 3000 ng/mL
  MRT, GeoMean: 3.9 h
  MRT, Mean: 4 h
  Tmax, GeoMean: 0.5 h
  Tmax, Mean: 0.5 h
  t½, GeoMean: 4.2 h
  t½, Mean: 4.3 h
[1]; po, 800 mg
  AUC(0-t), GeoMean: 12000 ng·h/mL
  AUC(0-t), Mean: 12000 ng·h/mL
  AUC, GeoMean: 12000 ng·h/mL
  AUC, Mean: 12000 ng·h/mL
  Cmax, GeoMean: 3700 ng/mL
  Cmax, Mean: 3800 ng/mL
  MRT, GeoMean: 4.1 h
  MRT, Mean: 4.1 h
  Tmax, GeoMean: 0.76 h
  Tmax, Mean: 0.8 h
  t½, GeoMean: 3.4 h
  t½, Mean: 3.5 h
Patients with ALS; 6 month dosing
  safety and tolerability: safe and well tolerated
Patients with ALS; [2]
  % Early Study Medication Discontinuation: 11.6%
  Completed Trial on Treatment: 61
  Early Study Medication Discontinuation: 8
Patients with ALS; [3]
  treatment discontinuation: Adverse Event: 1
  treatment discontinuation: Death: 1
  treatment discontinuation: Other Reasons: 0
  treatment discontinuation: Reason not listed: 0
  treatment discontinuation: Withdrew Consent: 6
Patients with ALS; over 6-months
  # Early Study Medication Discontinuations per Month: 1.33
Patients with ALS; patients co-administered with riluzole vs without
  rate of ALSFRS-R decline: no apparent difference
Patients with ALS; patients treated with riluzole in addition to Compound I vs those not treated with riluzole
  progression of Vital Capacity (VC): appeared to progress more slowly
Patients with ALS; screening vs 6-month
  change in serum creatinine levels: no significant change
Patients with ALS; [4]
  slower decline by % VC: 7.6%
  slower decline by ALSFRS-R: 21.4%
  slower decline by BMI: 20.4%
  slower decline by weight: 22.8%
